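Test compounds were applied to cells in 96-well plates for 48 hours at 5 doses. Abbreviation: GI50, concentration required for 50% inhibition of growth. TGI denotes the concentration required for complete inhibition of growth.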
Legend:
Test in all cases: growth of human tumour cells (NCI), 48 h
[1] = system: SR leukemia
[2] = system: A498 renal
[3] = system: TK-10 renal
[4] = system: COLO 205 colon
[5] = system: M14 melanoma
[6] = system: UACC-62 melanoma
[7] = system: HOP-62 NSCLC
[8] = system: HT29 colon
[9] = system: HCC-2998 colon

Row | Structure (SMILES) | TGI [1] [µM] | TGI [2] [µM] | TGI [3] [µM] | TGI [4] [µM] | TGI [5] [µM] | TGI [6] [µM] | TGI [7] [µM] | TGI [8] [µM] | TGI [9] [µM] | GI50 [1] [µM] | GI50 [3] [µM] | GI50 [4] [µM] | GI50 [5] [µM] | GI50 [6] [µM] | GI50 [7] [µM] | GI50 [8] [µM]
1 | CC(=O)OCC1OC(n2cc(F)c(=O)[nH]c2=O)C(NC(=O)N(CCCl)N=O)C(OC(C)=O)C1OC(C)=O (configuration not stated) | > 100 | > 100 | > 100 | > 100 | > 100 | > 100 | > 100 | > 100 |  |  |  |  |  |  |  | 
2 | C/C(=C1/N=C(c2cc([N+](=O)[O-])ccc2Cl)N(c2cccc(C)c2)C1=O)c1cc2ccccc2oc1=O | > 100 | > 100 | > 100 | > 100 | > 100 | > 100 | > 100 | > 100 | > 100 |  |  |  |  |  |  | 
3 | CCCCCN(CCCCC)C(=O)[C@@H](CCC(=O)O)NC(=O)c1cc2ccccc2[nH]1 |  | > 100 | > 100 | 94.9 | 53.4 | 47.5 | 87.7 | > 100 | > 100 |  |  |  |  |  |  | 
4 | COC(=O)C(Cc1cc(OC)c(OC)c(OC)c1)C(=O)OC | > 320 |  | > 320 | > 320 |  | > 320 | > 320 | > 320 | > 320 |  |  |  |  |  |  | 
5 | Cc1ccc(S(=O)(=O)OCCn2cnc3nc(NC(=O)c4ccccc4)[nH]c(=O)c32)cc1 | > 100 | > 100 | > 100 | > 100 | > 100 | > 100 | > 100 | > 100 |  |  |  |  |  |  |  | 
6 | CCOC(=O)/C(=C/N1CCN(C(=O)c2ccco2)C1=S)C(=O)c1ccccc1 | 16.4 |  | 34 | > 50 | 21 | 17.5 | > 50 | > 50 |  | 2.35 | 12.4 | 19.2 | 8.86 | 7.64 | 17.3 | 19.2
7 | O=C(/C=C/c1cc(Cl)cc(Cl)c1O)c1cccc(O)c1 | 59.8 | > 100 | > 100 | 32.7 | > 100 | > 100 | > 100 | > 100 | > 100 |  |  |  |  |  |  | 
8 | CN(C)C=Nc1ccn(CCO)c(=O)n1 | > 100 | > 100 | > 100 | > 100 | > 100 | > 100 | > 100 | > 100 | > 100 |  |  |  |  |  |  | 

Source: PubChem BioAssay (NCI)
